Experimental data reported in ChEMBL document CHEMBL3885881, “DrugMatrix”.

Species on record: Rattus norvegicus
Assay: DrugMatrix - Regimen: Daily Repeat
Assay type: toxicity, organism-based, Sprague-Dawley
Design: regimen Daily Repeat, gender Male, age 6-8 weeks
Settings: in vivo, po, route oral GAVAGE, […]; for ABSOLUTE BASOPHIL / ABSOLUTE EOSINOPHIL / ABSOLUTE LYMPHOCYTE / ABSOLUTE MONOCYTE / ABSOLUTE SEGMENTED NEUTROPHIL / BASOPHIL / EOSINOPHIL / ERYTHROCYTE COUNT / HEMATOCRIT / HEMOGLOBIN / LEUKOCYTE COUNT / LYMPHOCYTE / MEAN CORPUSCULAR HEMOGLOBIN / MEAN CORPUSCULAR HEMOGLOBIN CONCENTRATION / MEAN CORPUSCULAR VOLUME / MONOCYTE / NEUTROPHIL / NUCLEATED RED BLOOD CELLS / PLATELET COUNT: tissue Blood; for ALANINE AMINOTRANSFERASE / ALKALINE PHOSPHATASE / ASPARTATE AMINOTRANSFERASE / BLOOD UREA NITROGEN / CARBON DIOXIDE / CHLORIDE / CHOLESTEROL / CREATINE PHOSPHOKINASE / CREATININE / GLUCOSE / LACTATE DEHYDROGENASE / LIPASE / PHOSPHORUS / POTASSIUM / SODIUM / TOTAL BILIRUBIN / TOTAL PROTEIN / URIC ACID: tissue Plasma
[1] = 0 mg/kg, 72 h, dose level Control, time 3 day
[2] = 0 mg/kg, 120 h, dose level Control, time 5 day
[3] = 36 mg/kg, 72 h, dose level Low, time 3 day

In the case of `c1ccc2c(c1)Nc1ccccc1S2` [PHENOTHIAZINE], the “ABSOLUTE BASOPHIL” value [1] is reported as 0 CELLS/uL, the “ABSOLUTE EOSINOPHIL” value [1] is reported as 0 CELLS/uL and the “ABSOLUTE LYMPHOCYTE” value [1] is reported as 6275.67 CELLS/uL. For the same compound, the “ABSOLUTE MONOCYTE” value [1] was 40.67 CELLS/uL, the “ABSOLUTE SEGMENTED NEUTROPHIL” value [1] was 633.67 CELLS/uL and the BASOPHIL [1] was 0%. For the same compound, the EOSINOPHIL [1] was 0%, the “ERYTHROCYTE COUNT” value [1] was 5.2 x10E6/uL and the HEMATOCRIT [1] was 32.78%. The HEMOGLOBIN [1] was 12.98 G/DL, the “LEUKOCYTE COUNT” value [1] was 6.95 x10E3/uL and the LYMPHOCYTE [1] was 90.17%. The “MEAN CORPUSCULAR HEMOGLOBIN” value [1] was 24.97 pg, the “MEAN CORPUSCULAR HEMOGLOBIN CONCENTRATION” value [1] was 39.62 G/DL and the “MEAN CORPUSCULAR VOLUME” value [1] was 63.03 fL. For the same compound, the MONOCYTE [1] was 0.67%, the NEUTROPHIL [1] was 9.17% and the “NUCLEATED RED BLOOD CELLS” value [1] was 0 /100WBC. The “PLATELET COUNT” value [1] was 1082.83 x10E3/uL, the “ALANINE AMINOTRANSFERASE” value [1] was 69.67 u/L and the “ALKALINE PHOSPHATASE” value [1] was 430.5 u/L. For the same compound, the “ASPARTATE AMINOTRANSFERASE” value [1] was 90.83 u/L, the “BLOOD UREA NITROGEN” value [1] was 13 mg/dL and the “CARBON DIOXIDE” value [1] was 33 mmol/L. For the same compound, the CHLORIDE [1] was 99.17 MEQ/L, the CHOLESTEROL [1] was 70.5 mg/dL and the “CREATINE PHOSPHOKINASE” value [1] was 253.33 u/L. The CREATININE [1] was 0.13 mg/dL, the GLUCOSE [1] was 157.17 mg/dL and the “LACTATE DEHYDROGENASE” value [1] was 85 u/L. It also gave an LIPASE [1] of 10 u/L, a PHOSPHORUS [1] of 10.2 mg/dL and a POTASSIUM [1] of 5.78 MEQ/L. For the same compound, the SODIUM [1] was 144.12 MEQ/L, the “TOTAL BILIRUBIN” value [1] was 0.2 mg/dL and the “TOTAL PROTEIN” value [1] was 5.8 G/DL. For the same compound, the “URIC ACID” value [1] was 0.8 mg/dL, the “ABSOLUTE BASOPHIL” value [2] was 0 CELLS/uL and the “ABSOLUTE EOSINOPHIL” value [2] was 0 CELLS/uL. The “ABSOLUTE LYMPHOCYTE” value [2] was 10431 CELLS/uL, the “ABSOLUTE MONOCYTE” value [2] was 90.5 CELLS/uL and the “ABSOLUTE SEGMENTED NEUTROPHIL” value [2] was 1111.83 CELLS/uL. The BASOPHIL [2] was 0%, the EOSINOPHIL [2] was 0% and the “ERYTHROCYTE COUNT” value [2] was 5.51 x10E6/uL. The HEMATOCRIT [2] was 34.67%, the HEMOGLOBIN [2] was 13.5 G/DL and the “LEUKOCYTE COUNT” value [2] was 11.63 x10E3/uL. The LYMPHOCYTE [2] was 89.67%, the “MEAN CORPUSCULAR HEMOGLOBIN” value [2] was 24.5 pg and the “MEAN CORPUSCULAR HEMOGLOBIN CONCENTRATION” value [2] was 38.95 G/DL. For the same compound, the “MEAN CORPUSCULAR VOLUME” value [2] was 62.87 fL, the MONOCYTE [2] was 0.67% and the NEUTROPHIL [2] was 9.67%. For the same compound, the “NUCLEATED RED BLOOD CELLS” value [2] was 0 /100WBC, the “PLATELET COUNT” value [2] was 1052.67 x10E3/uL and the “ALANINE AMINOTRANSFERASE” value [2] was 54.67 u/L. For the same compound, the “ALKALINE PHOSPHATASE” value [2] was 359.83 u/L, the “ASPARTATE AMINOTRANSFERASE” value [2] was 83 u/L and the “BLOOD UREA NITROGEN” value [2] was 13.5 mg/dL. For the same compound, the “CARBON DIOXIDE” value [2] was 27.17 mmol/L, the CHLORIDE [2] was 98.5 MEQ/L and the CHOLESTEROL [2] was 66.83 mg/dL. For the same compound, the “CREATINE PHOSPHOKINASE” value [2] was 256.17 u/L, the CREATININE [2] was 0.19 mg/dL and the GLUCOSE [2] was 171.33 mg/dL. For the same compound, the “LACTATE DEHYDROGENASE” value [2] was 91.5 u/L, the LIPASE [2] was 10.5 u/L and the PHOSPHORUS [2] was 8.72 mg/dL. The POTASSIUM [2] was 5.34 MEQ/L, the SODIUM [2] was 142.53 MEQ/L and the “TOTAL BILIRUBIN” value [2] was 0.2 mg/dL. For the same compound, the “TOTAL PROTEIN” value [2] was 6.05 G/DL, the “URIC ACID” value [2] was 0.6 mg/dL and the “ABSOLUTE BASOPHIL” value [3] was 0 CELLS/uL. The “ABSOLUTE EOSINOPHIL” value [3] was 54.67 CELLS/uL, the “ABSOLUTE LYMPHOCYTE” value [3] was 10865.33 CELLS/uL and the “ABSOLUTE MONOCYTE” value [3] was 53.67 CELLS/uL. For the same compound, the “ABSOLUTE SEGMENTED NEUTROPHIL” value [3] was 926.33 CELLS/uL, the BASOPHIL [3] was 0% and the EOSINOPHIL [3] was 0.67%. The “ERYTHROCYTE COUNT” value [3] was 5.23 x10E6/uL, the HEMATOCRIT [3] was 34.4% and the HEMOGLOBIN [3] was 13.4 G/DL. For the same compound, the “LEUKOCYTE COUNT” value [3] was 11.9 x10E3/uL, the LYMPHOCYTE [3] was 91% and the “MEAN CORPUSCULAR HEMOGLOBIN” value [3] was 25.6 pg. The “MEAN CORPUSCULAR HEMOGLOBIN CONCENTRATION” value [3] was 39 G/DL, the “MEAN CORPUSCULAR VOLUME” value [3] was 65.73 fL and the MONOCYTE [3] was 0.33%. The NEUTROPHIL [3] was 8%, the “NUCLEATED RED BLOOD CELLS” value [3] was 0 /100WBC and the “PLATELET COUNT” value [3] was 973 x10E3/uL. For the same compound, the “ALANINE AMINOTRANSFERASE” value [3] was 62.67 u/L, the “ALKALINE PHOSPHATASE” value [3] was 333.33 u/L and the “ASPARTATE AMINOTRANSFERASE” value [3] was 94.33 u/L. The “BLOOD UREA NITROGEN” value [3] was 11.67 mg/dL, the “CARBON DIOXIDE” value [3] was 26.67 mmol/L and the CHLORIDE [3] was 98 MEQ/L. The CHOLESTEROL [3] was 63.67 mg/dL, the “CREATINE PHOSPHOKINASE” value [3] was 272.33 u/L and the CREATININE [3] was 0.28 mg/dL. For the same compound, the GLUCOSE [3] was 138 mg/dL, the “LACTATE DEHYDROGENASE” value [3] was 84 u/L and the LIPASE [3] was 10.33 u/L. For the same compound, the PHOSPHORUS [3] was 10.03 mg/dL, the POTASSIUM [3] was 5.46 MEQ/L and the SODIUM [3] was 142.1 MEQ/L. For the same compound, the “TOTAL BILIRUBIN” value [3] was 0.17 mg/dL, the “TOTAL PROTEIN” value [3] was 5.37 G/DL and the “URIC ACID” value [3] was 0.57 mg/dL.
